Test results from US20090253778A1, “DNA composition against tumor stromal antigen FAP and methods of use thereof” (priority 2006, published 2009).
One block for each compound: values may come before it.

Key:
[1] = system: D2F2 breast carcinoma cells; assay: nuclear apoptosis by Hoechst-33342 dye staining in resistant D2F2 cells; format: cell-based, Murine
Procedure: (§1) Murine CT26 and D2F2 carcinoma cells were cultured in the presence of either 1% DMSO, etoposide, 5-fluorouracil, doxorubicin, vinblastine or paclitaxel (Sigma, St. Louis, Mo.) at the concentrations indicated. After 48 hours, apoptotic nuclei were counted after incubation with the DNA-specific Hoechst-33342 dye (2 μM; Molecular Probes, Eugene, Oreg.).
(§2) Two clones of CT26 colon cancer and D2F2 breast cancer cells, respectively, have acquired chemoresistance (see FIG. 1, Panel C).

[2] = system: D2F2 breast carcinoma cells; assay: prophylactic setting, orthotopic D2F2 tumor growth, with or without doxorubicin; format: in vivo, BALB/c mice
Procedure: Oral immunization, tumor cell challenge and treatment with doxorubicin. […] Med., 2002, 8: 1369-1375. Animals were challenged about 10 days later by subcutaneous (s.c.) injection of about 3×10^4 CT26 colon carcinoma cells in the left front flank or by orthotopic (o.t.) injection of about 3×10^5 D2F2 breast cancer cells in the left, second lowest mammary fat pad.
Tumor volume (in mm^3) was calculated by measuring the tumor in 2 dimensions (i.e., length and width, in millimeters) and calculating the volume as one half the length times the square of the width. In the therapeutic setting, the initial tumor cell inoculation was by intravenous (i.v.) injection of about 1×10^5 CT26 colon carcinoma cells followed about 3 and 10 days later by oral vaccinations with control vaccine or active DNA compositions. After about 18 days, the lungs were weighed (normal lung weight was about 0.2 g) and pulmonary tumor metastases were examined and scored by visual evaluation assessing the percentage of lung surface covered by fused metastases as follows: score of 0 for 0% coverage, score of 1 for less than about 20% coverage, score of 2 for about 20-50% coverage, score of 3 for greater than about 50% of lung surface covered. Treatment with doxorubicin was performed in groups of mice with about 10 mg/kg doxorubicin (Sigma) administered i.v., 5, 10 and 15 days after tumor challenge. […]

[3] = system: CT26 colon carcinoma cells; assay: nuclear apoptosis by Hoechst-33342 dye staining in chemoresistant CT26 clone; format: cell-based, Murine; conditions: resistant CT26 clone, 48 hours
Procedure: as §1, §2

[4] = system: parent CT26 cell line (ATCC #CLR-2326); assay: IC50 in original parent CT26 cell line; format: cell-based, Murine; conditions: Mus musculus
From the text: as §2

SMILES: COc1cccc2c1C(=O)c1c(O)c3c(c(O)c1C2=O)C[C@@](O)(C(=O)CO)C[C@@H]3O[C@H]1C[C@H](N)[C@H](O)[C@H](C)O1 [doxorubicin]
sensitivity of D2F2 cells ([1]; FIG. 1, Panel C): partially sensitive
nuclear apoptosis (Hoechst-33342 dye staining) ([1]; resistant D2F2 cells, 48 hours, highest concentration of 1 μM): able to induce nuclear apoptosis
tumor growth ([2]; orthotopic D2F2, doxorubicin or PBS 5, 10 and 15 days after challenge): only able to suppress, but not eradicate tumor growth
complete rejection of tumors ([2]; single agent alone): not observed

SMILES: CC[C@]1(O)C[C@@H]2CN(CCc3c([nH]c4ccccc34)[C@@](C(=O)OC)(c3cc4c(cc3OC)N(C)[C@H]3[C@@](O)(C(=O)OC)[C@H](OC(C)=O)[C@]5(CC)C=CCN6CC[C@]43[C@@H]65)C2)C1 [vinblastine]
nuclear apoptosis (Hoechst-33342 dye staining) ([3]; only at 5 μM): slight apoptotic effect

IC50 [4]: ~1.85 µM
SMILES: O=c1[nH]cc(F)c(=O)[nH]1 [5-FU, 5-fluorouracil]
nuclear apoptosis (Hoechst-33342 dye staining) ([3]; concentration as high as 100 μM): not able to induce nuclear apoptosis
